Format in all cases: in vivo
For one test, the system named is Colletotricum lagenarium. Put plainly: Cucumber Anthracnose (COLLLA) whole-plant disease control test. The following applies: for pest or weed control at 200 ppm: Cucumis sativus, foliar, read-out: COLLLA disease control.
In test [1] the test system is Mycosphaerella graminicola=Septoria tritici. In words: Speckled Leaf Blotch of Wheat (SEPTTR) whole-plant disease control test. The following applies: for pest or weed control at 75 ppm: Mycosphaerella, foliar, read-out: SEPTTR disease control.
The subject of the next test is Leptosphaeria nodorum. In words: Glume Blotch of Wheat (LEPTNO) whole-plant disease control test. The following applies: for pest or weed control at 200 ppm: read-out: LEPTNO disease control.
The subject of another test is Phytophthora infestans. In words: whole plant or invertebrate. The following applies: inoculated one day after treatment; for pest or weed control at 200 ppm: Phytophthora infestans, in Solanum lycopersicum, foliar, read-out: PHYTIN disease control, 200 ppm applied to foliage of tomato.
Test [2] relates to Puccinia recondita tritici. In words: Leaf Rust of Wheat (PUCCRT) whole-plant disease control test. The following applies: for pest or weed control at 200 ppm: Puccinia recondita, foliar, read-out: PUCCRT disease control.
In test [3] the test system is Magnaporthe grisea=Pyricularia oryzae. In words: whole plant or invertebrate. The following applies: for pest or weed control at 200 ppm: read-out: PYRIOR disease control, 200 ppm applied to foliage of rice.
The next test relates to Erysiphe cichoracaerum. Put plainly: Cucumber Powdery Mildew (ERYSCI) whole-plant disease control test. The following applies: for pest or weed control at 200 ppm: Erysiphe, foliar, read-out: ERYSCI disease control.
Where [4] appears, read: 200 ppm applied to foliage of cucumber, inoculated one day after treatment.
[5] abbreviates: 75 ppm applied to foliage of wheat.
The mark [6] stands for this setting: Parastagonospora nodorum, foliar, 200 ppm applied to foliage of wheat, inoculated one day after treatment.
Setting [7] is: 200 ppm applied to foliage of wheat, inoculated one day after treatment.
The mark [8] stands for this setting: Pyricularia oryzae, foliar, inoculated one day after treatment.

Read-outs that look alike come from different tables or passages of the source.

For the molecule `CCOC(=O)c1cccc(Oc2ccc(CCNc3ncnc4scc(Cl)c34)cc2)n1` [Compound 80], the pest or weed control at 200 ppm in the test with Colletotricum lagenarium (setting [4]) fell in the range of 0 to 49%; in the test on Leptosphaeria nodorum (setting [6]) it was 0 to 49%; with Phytophthora infestans, 80 to 100%; in test [2] (setting [7]) it was 80 to 100%; in test [3] (setting [8]) it was 80 to 100%; with Erysiphe cichoracaerum (setting [4]), 0 to 49%. In test [1] (setting [5]), the pest or weed control at 75 ppm is 0 to 49%.
As for `Clc1csc2ncnc(NCCc3ccc(Oc4nc(Br)ns4)cc3)c12` [Compound 112], the pest or weed control at 200 ppm with Colletotricum lagenarium (setting [4]) was 50 to 79%; in the test on Leptosphaeria nodorum (setting [6]) it was 0 to 49%; with Phytophthora infestans, 50 to 79%; in test [2] (setting [7]) it was 80 to 100%; in test [3] (setting [8]), 80 to 100%; with Erysiphe cichoracaerum (setting [4]) it was 0 to 49%. Besides, the pest or weed control at 75 ppm in test [1] (setting [5]) was 0 to 49%.
For `NC(=O)c1ccc(Oc2ccc(CCNc3ncnc4scc(Cl)c34)cc2)nc1` [Compound 21], the pest or weed control at 200 ppm fell in the range of 0 to 49% with Colletotricum lagenarium (setting [4]); 0 to 49% in the test with Leptosphaeria nodorum (setting [6]); 0 to 49% in the test with Phytophthora infestans; 80 to 100% in test [2] (setting [7]); 0 to 49% in test [3] (setting [8]); 0 to 49% in the test on Erysiphe cichoracaerum (setting [4]). Moreover, in test [1] (setting [5]), the pest or weed control at 75 ppm fell in the range of 0 to 49%.
On to `FC(F)(F)c1cc(Oc2ccc(CCNc3ncnc4scc(Cl)c34)cc2)nc(C(F)(F)F)c1` [Compound 76], for which the pest or weed control at 200 ppm in the test with Colletotricum lagenarium (setting [4]) is 50 to 79%; in the test with Leptosphaeria nodorum (setting [6]), 50 to 79%; with Phytophthora infestans it was 0 to 49%; in test [2] (setting [7]), 80 to 100%; in test [3] (setting [8]) it was 80 to 100%; in the test on Erysiphe cichoracaerum (setting [4]), 0 to 49%. In test [1] (setting [5]), the pest or weed control at 75 ppm fell in the range of 0 to 49%.
Consider `Clc1cc(Br)cnc1Oc1ccc(CCNc2ncnc3scc(Cl)c23)cc1` [Compound 51], for which the pest or weed control at 200 ppm in the test with Colletotricum lagenarium (setting [4]) fell in the range of 0 to 49%; in the test with Leptosphaeria nodorum (setting [6]) it was 0 to 49%; in the test with Phytophthora infestans, 0 to 49%; in test [2] (setting [7]) it was 80 to 100%; in test [3] (setting [8]), 80 to 100%; with Erysiphe cichoracaerum (setting [4]), 0 to 49%. Also, the pest or weed control at 75 ppm in test [1] (setting [5]) lay in the range of 50 to 79%.
As for `CO/N=C(\C)c1cnc(Oc2ccc(CCNc3ncnc4scc(Cl)c34)cc2)s1` [Compound 48], the pest or weed control at 200 ppm was in the range of 50 to 79% in the test on Colletotricum lagenarium (setting [4]); 0 to 49% with Leptosphaeria nodorum (setting [6]); 80 to 100% in the test on Phytophthora infestans; 80 to 100% in test [2] (setting [7]); 80 to 100% in test [3] (setting [8]); 80 to 100% in the test with Erysiphe cichoracaerum (setting [4]). Further, in test [1] (setting [5]), the pest or weed control at 75 ppm fell in the range of 50 to 79%.
As for `O=Cc1ccc(Oc2ccc(CCNc3ncnc4scc(Cl)c34)cc2)nc1` [Compound 24], the pest or weed control at 200 ppm with Colletotricum lagenarium (setting [4]) fell in the range of 50 to 79%; with Leptosphaeria nodorum (setting [6]), 0 to 49%; with Phytophthora infestans, 50 to 79%; in test [2] (setting [7]), 80 to 100%; in test [3] (setting [8]) it was 80 to 100%; in the test on Erysiphe cichoracaerum (setting [4]), 0 to 49%. Moreover, the pest or weed control at 75 ppm in test [1] (setting [5]) is 50 to 79%.
Take `CC(C)OC(=O)c1cnc(Oc2ccc(CCNc3ncnc4scc(Cl)c34)cc2)c(Cl)c1` [Compound 106]: the pest or weed control at 200 ppm in the test on Colletotricum lagenarium (setting [4]) lay within 0 to 49%; with Leptosphaeria nodorum (setting [6]) it was 0 to 49%; in the test with Phytophthora infestans, 0 to 49%; in test [2] (setting [7]), 80 to 100%; in test [3] (setting [8]), 80 to 100%; in the test on Erysiphe cichoracaerum (setting [4]), 0 to 49%. The pest or weed control at 75 ppm in test [1] (setting [5]) lay in the range of 50 to 79%.
Take `O=C(Nc1ccc(CCNc2ncnc3scc(Cl)c23)cc1)c1ccnc(Cl)c1` [Compound 99, 2-Chloro-N-{4-[2-(5-chlorothieno[2,3,-d]pyrimidin-4-ylamino)ethyl]phenyl}isonicotinamide]: the pest or weed control at 200 ppm fell in the range of 50 to 79% in the test on Colletotricum lagenarium (setting [4]); 0 to 49% in the test with Leptosphaeria nodorum (setting [6]); 50 to 79% with Phytophthora infestans; 80 to 100% in test [2] (setting [7]); 80 to 100% in test [3] (setting [8]); 0 to 49% with Erysiphe cichoracaerum (setting [4]). In test [1] (setting [5]), the pest or weed control at 75 ppm lay within 0 to 49%.
`Fc1cccc(Oc2ccc(CCNc3ncnc4scc(Cl)c34)cc2)n1` [Compound 36]: the pest or weed control at 200 ppm with Colletotricum lagenarium (setting [4]) fell in the range of 50 to 79%; in the test on Leptosphaeria nodorum (setting [6]), 0 to 49%; in the test with Phytophthora infestans, 0 to 49%; in test [2] (setting [7]), 80 to 100%; in test [3] (setting [8]), 80 to 100%; in the test on Erysiphe cichoracaerum (setting [4]), 80 to 100%. The pest or weed control at 75 ppm in test [1] (setting [5]) is 50 to 79%.
Regarding `Fc1cnc(C(F)(F)F)c(F)c1Oc1ccc(CCNc2ncnc3scc(Cl)c23)cc1` [Compound 61], the pest or weed control at 200 ppm with Colletotricum lagenarium (setting [4]) was in the range of 80 to 100%; in the test with Leptosphaeria nodorum (setting [6]) it was 50 to 79%; in the test with Phytophthora infestans, 0 to 49%; in test [2] (setting [7]), 80 to 100%; in test [3] (setting [8]), 80 to 100%; in the test on Erysiphe cichoracaerum (setting [4]) it was 80 to 100%. In addition, in test [1] (setting [5]), the pest or weed control at 75 ppm was in the range of 80 to 100%.
Regarding `N#Cc1ccnc(Oc2ccc(CCNc3ncnc4sccc34)cc2)c1` [Compound 53], the pest or weed control at 200 ppm with Colletotricum lagenarium (setting [4]) lay within 80 to 100%; in the test on Leptosphaeria nodorum (setting [6]), 50 to 79%; with Phytophthora infestans, 80 to 100%; in test [2] (setting [7]), 80 to 100%; in test [3] (setting [8]) it was 80 to 100%; in the test on Erysiphe cichoracaerum (setting [4]), 50 to 79%. Further, in test [1] (setting [5]), the pest or weed control at 75 ppm lay in the range of 50 to 79%.
For `Clc1csc2ncnc(NCCc3ccc(Oc4ccc(Br)cn4)cc3)c12` [Compound 7, {2-[4-(5-Bromopyridin-2-yloxy)phenyl]ethyl}-(5-chlorothieno[2,3-d]pyrimidin-4-yl}amine], the pest or weed control at 200 ppm with Colletotricum lagenarium (setting [4]) was 50 to 79%; with Leptosphaeria nodorum (setting [6]) it was 80 to 100%; in the test with Phytophthora infestans, 0 to 49%; in test [2] (setting [7]) it was 80 to 100%; in test [3] (setting [8]), 50 to 79%; with Erysiphe cichoracaerum (setting [4]) it was 80 to 100%. For the same molecule, the pest or weed control at 75 ppm in test [1] (setting [5]) fell in the range of 50 to 79%.
Regarding `FC(F)(F)c1ncccc1Oc1ccc(CCNc2ncnc3scc(Cl)c23)cc1` [Compound 78], the pest or weed control at 200 ppm is 50 to 79% in the test with Colletotricum lagenarium (setting [4]); 80 to 100% in the test with Leptosphaeria nodorum (setting [6]); 50 to 79% in the test on Phytophthora infestans; 80 to 100% in test [2] (setting [7]); 80 to 100% in test [3] (setting [8]); 80 to 100% with Erysiphe cichoracaerum (setting [4]). In test [1] (setting [5]), the pest or weed control at 75 ppm is 50 to 79%.
On to `FC(F)(F)c1ccc(Oc2cccc(CCNc3ncnc4scc(Cl)c34)c2)nc1` [Compound 67, (5-Chlorothieno[2,3-d]pyrimidin-4-yl)-{2-[3-(5-trifluoromethylpyridin-2-yloxy)phenyl]ethyl}amine], for which the pest or weed control at 200 ppm in the test on Colletotricum lagenarium (setting [4]) was in the range of 0 to 49%; in the test with Leptosphaeria nodorum (setting [6]) it was 50 to 79%; in the test on Phytophthora infestans it was 50 to 79%; in test [2] (setting [7]), 80 to 100%; in test [3] (setting [8]), 80 to 100%; in the test on Erysiphe cichoracaerum (setting [4]), 50 to 79%. In addition, in test [1] (setting [5]), the pest or weed control at 75 ppm was 80 to 100%.
Regarding `N#CCc1cccc(Oc2ccc(CCNc3ncnc4scc(Cl)c34)cc2)n1` [Compound 97], the pest or weed control at 200 ppm in the test with Colletotricum lagenarium was 50 to 79%; in the test with Leptosphaeria nodorum (Parastagonospora nodorum, foliar) it was 80 to 100%; in the test with Phytophthora infestans, 80 to 100%; in test [2] it was 80 to 100%; in test [3] (setting [8]), 80 to 100%; with Erysiphe cichoracaerum, 0 to 49%. For the same molecule, the pest or weed control at 75 ppm in test [1] lay in the range of 50 to 79%.
Consider `COc1cc(CCNc2ncnc3scc(Cl)c23)ccc1Oc1cc(C(F)(F)F)ccn1` [Compound 124, (5-Chlorothieno[2,3-d]pyrimidin-4-yl)-{2-[3-methoxy-4-(4-trifluoromethylpyridin-2-yloxy)phenyl]ethyl}amine], for which the pest or weed control at 200 ppm lay in the range of 50 to 79% in the test on Colletotricum lagenarium (setting [4]), 50 to 79% with Phytophthora infestans, 80 to 100% in test [2] (setting [7]) and 80 to 100% in the test with Erysiphe cichoracaerum (setting [4]). Moreover, the pest or weed control at 75 ppm in test [1] (setting [5]) was 0 to 49%; in the test with Leptosphaeria nodorum (Parastagonospora nodorum, foliar, 75 ppm (footnote b), wheat foliage) it was 0 to 49%. The pest or weed control at 8.3 ppm in test [3] (Pyricularia oryzae, foliar, read-out: PYRIOR disease control, 8.3 ppm (footnote c), rice foliage) was in the range of 80 to 100%.
Take `Clc1csc2ncnc(NCCc3ccc(Oc4ncnc5scc(Cl)c45)cc3)c12` [Compound 68]: in the test with Colletotricum lagenarium (setting [4]), the COLLLA disease control result is listed as “* (* = 0–49 percent control)”. For the same molecule, in test [1] (setting [5]), the SEPTTR disease control entry is recorded as “* (* = 0–49 percent control)”. Further, in the test on Leptosphaeria nodorum (setting [7]), the LEPTNO disease control result is given as “* (* = 0–49 percent control)”. Moreover, the PHYTIN disease control entry in the test with Phytophthora infestans (200 ppm applied to foliage of tomato) is given as “** (** = 50–79 percent control)”. Moreover, the PUCCRT disease control entry in test [2] (setting [7]) is “*** (*** = 80–100 percent control)”. The PYRIOR disease control entry in test [3] (200 ppm applied to foliage of rice, inoculated one day after treatment) was “*** (*** = 80–100 percent control)”. Besides, in the test on Erysiphe cichoracaerum (setting [4]), the ERYSCI disease control entry is given as “* (* = 0–49 percent control)”.

The values are drawn from patent US7531482B2, “Thieno-pyrimidine compounds having fungicidal activity” (Dow AgroSciences LLC, priority 2005, dated 2009).
